Several values for one entry are separate records, joined by “and”; a condition that tells them apart may be missing. Identical values can stand only once.

Turning to `Cc1ccc(NC(=S)NN)c(C)c1` [4-(2,4-dimethylphenyl)-3-thiosemicarbazide], the melting point (in general, the temperature of the solid-liquid transition) was determined as 151 °C.
Regarding `CN1CCC[C@H]1c1cccnc1` [(S)-nicotine], the melting point is -79 °C.
For the molecule `Cc1cccc(C(=O)O)c1` [m-toluic_acid], the melting point was 110 °C.
The same measure for `CCCCCCCC/C=CCCCCCCCCCCCC(=O)O` [erucic acid]: 31 °C; for `Cc1cc(Br)c(C)cc1Br` [2,5-Dibromo-p-xylene]: 74 °C.
Turning to `CCC(C)C1(CC)C(=O)NC(=O)NC1=O` (stereo not given) [butabarbital], the melting point was determined as 166 °C.
Turning to `CC(N)C(=O)O` (stereo in doubt) [D-Alanine], the melting point was found to be 292 °C.
Regarding `Cc1cccc(I)c1` [3-iodotoluene], the melting point is -27 °C.
Regarding `CCC#N` [propionitrile], the melting point is -93 °C and -92 °C.
For the molecule `O=C(O)CCCc1ccccc1` [4-phenylbutyric acid], the melting point stood at 52 °C.
The same measure for `Clc1ccccc1I` [o-chloroiodobenzene]: 1 °C.
The same measure for `ClCc1ccc(Cl)c(Cl)c1` [3,4-dichlorobenzyl chloride]: -3 °C.
In the case of `CCOC(=O)/C(=N\Nc1ccccc1)C(=O)C(F)(F)F` it was 81 °C; in that of `O=C(Oc1cccc(OC(=O)c2ccccc2)c1)c1ccccc1` [1,3-dibenzoyloxybenzene], 118 °C.
As to `C#CC1(O)CC[C@H]2[C@@H]3CCc4cc(O)ccc4[C@H]3CC[C@@]21C` (stereo in doubt) [(17beta)-17-Ethynylestra-1(10),2,4-triene-3,17-diol], the melting point was 144 °C.
`c1cncnc1` [pyrimidine]: the melting point was 21 °C.
In the case of `COC(=O)c1ccccc1N` [methyl anthranilate] it was 24 °C.
With `Oc1ccc2ccccc2c1N=Nc1nccs1` [1-(2-thiazolylazo)-2-naphthol], the melting point turned out to be 139 °C.
In the case of `CCOC(=O)C1=C(C(=O)OCC)C(C)N=N1` (stereo not given) [diethyl 5-methyl-1H-pyrazole-3,4-dicarboxylate] it was 99 °C; in that of `CC1(C)C2CC[C@]1(C)C(=O)C2` [(1S)-1,7,7-Trimethylbicyclo[2.2.1]heptan-2-one], 179 °C; in that of `COc1ccc(SCC(=O)O)cc1OC` [(3,4-dimethoxyphenylthio)acetic acid], 102 °C.
With `CCCCCCCCCCCCCC(N)=O` [N-tetradecanamide], the melting point was found to be 106 °C.
The same measure for `CCN(Cc1ccncc1)C(=O)C(CO)c1ccccc1` (stereo not given) [tropicamide]: 96 °C; for `O=[N+]([O-])c1ccc(O)cc1` [p-nitrophenol]: 115 °C; for `C1=CCC=C1` [Cyclopenta-1,3-diene]: -97.2 °C.
In the case of `C[C@H]1CCC[C@@H]1C` (relative stereo) [trans-1,2-dimethylcyclopentane] it was -118 °C; in that of `O=C[C@@H](O)[C@@H](O)[C@@H](O)[C@H](O)CO` [alpha-D-talose], 134 °C.
The same measure for `O=C(Nc1ccccc1)Nc1ccccc1` [1,3-Diphenylurea]: 238 °C.
As to `O=Cc1ccco1` [2-Furaldehyde], the melting point is -36 °C.
In the case of `C=C(C)CCC(=C)C` [2,5-dimethyl-1,5-hexadiene] it was -75 °C; in that of `CCCCOC(=O)c1ccccc1` [butyl_benzoate], -12 °C.
The same measure for `CCOC=C(C#N)C(=O)OCC` [ethyl (ethoxymethylene)cyanoacetate]: 50 °C; for `CCS(=O)(=O)CCn1c([N+](=O)[O-])cnc1C` [Tinidazole]: 128 °C.
For the molecule `NC(=O)c1ccc(N)cc1` [4-aminobenzamide], the melting point turned out to be 183 °C.
The same measure for `CCCCCCS` [1-hexanethiol]: -80 °C; for `CCc1ccc(O)cc1` [4-Ethylphenol]: 43.5 °C.
The molecule `ClCC(Cl)(Cl)Cl` [1,1,1,2-tetrachloroethane] displayed a melting point of -70 °C.
Take `O=Cc1ccccc1` [benzaldehyde]: the melting point is -56.5 °C and -55.6 °C.
The molecule `OB(O)c1ccc2ccccc2c1` [2-naphthaleneboronic acid] gave a melting point of 267 °C.
The same measure for `Nc1ccc2ncsc2c1` [6-aminobenzothiazole]: 88 °C; for `C=CCOc1ccc(CC(=O)O)cc1Cl` [Alclofenac]: 92 °C; for `CC(C)Cc1ccc(C(C)C(=O)O)cc1` (stereo not given) [ibuprofen]: 75 °C.
The molecule `O=Cc1ccc([N+](=O)[O-])o1` [5-nitro-2-furaldehyde] came in with a melting point of 36 °C.
The molecule `O=C(Cl)c1cc(Cl)cc(Cl)c1` [3,5-dichlorobenzoyl chloride] came in with a melting point of 26 °C.
The same measure for `Clc1ccccc1C(c1ccccc1)(c1ccccc1)n1ccnc1` [Clotrimazole]: 148 °C; for `Nc1ccc(C(=O)O)cc1` [4-aminobenzoic acid]: 188 °C.
The same measure for `Cc1ccc(C(=O)c2cc(Cl)cc(Cl)c2)c(C)c1` [3,5-dichloro-2',4'-dimethylbenzophenone]: 57 °C.
The molecule `O=C(CC(=O)c1ccccc1)c1ccccc1` [1,3-diphenyl-1,3-propanedione] returned a melting point of 78 °C.
For the molecule `CC(=O)C=C(C)[O][Co]([O]C(C)=CC(C)=O)[O]/C(C)=C\C(C)=O` [Cobalt(3+) tris[(2Z)-4-oxopent-2-en-2-olate]], the melting point is 212 °C.
The same measure for `Cc1c[nH]c2ccccc12` [3-methylindole]: 96 °C; for `Fc1cc(I)ccc1Br` [1-bromo-2-fluoro-4-iodobenzene]: 36 °C; for `NCCCCC(=O)O` [5-aminovaleric acid]: 157 °C.
The molecule `Nc1cc([N+](=O)[O-])ccc1O` [2-amino-4-nitrophenol] displayed a melting point of 143 °C.
In turn, `COc1c(F)cc(F)cc1B(O)O` [3,5-difluoro-2-methoxybenzeneboronic acid] yielded a melting point of 114 °C.
As to `Cc1cc(=O)cc(C)o1` [2,6-dimethyl-4-pyrone], the melting point amounted to 134 °C.
`OC(CS)C(O)CS` (stereo not given) [1,4-Disulfanylbutane-2,3-diol] displayed a melting point of 43 °C.
The same measure for `Cc1ccc2cc3c(ccc4ccccc43)c3c2c1CC3` [3-methylcholanthrene]: 180 °C.
The same measure for `O=C(O)C1(C(=O)O)CC1` [1,1-cyclopropanedicarboxylic acid]: 132 °C.
With `Cc1cn([C@H]2C[C@H](O)[C@@H](CO)O2)c(=O)[nH]c1=O` [Thymidine], the melting point was determined as 188 °C.
In the case of `N#CCc1cccc(C#N)c1` [m-cyano_phenylacetonitrile] it was 87 °C; in that of `NNC(=O)c1ccc(C(F)(F)F)cc1` [4-(trifluoromethyl)benzhydrazide], 119 °C.
The same measure for `COC1CC(C(=O)Cl)CC(OC)C1OC` (stereo not given) [3,4,5-trimethoxycyclohexanecarbonyl chloride]: 82 °C; for `Cc1ccc(N)cc1O` [5-Amino-o-cresol]: 161 °C; for `Cc1c[n+]([O-])ccc1[N+](=O)[O-]` [4-nitro-3-picoline n-oxide]: 136 °C.
The same measure for `Cl/C(Cl)=C/C3C(C(=O)OCc2cccc(Oc1ccccc1)c2)C3(C)C` (stereo not given): 34 °C; for `CC(=O)Nc1ccccc1C1C=c2ccccc2=N1` (stereo not given) [N-[2-(1H-indol-2-yl)phenyl]acetamide]: 152 °C.
For the molecule `CC(=O)Nc1nnc(S(N)(=O)=O)s1` [Acetazolamide], the melting point is 260 °C.
Molecule `O=[N+]([O-])c1ccccc1` [nitrobenzene] showed a melting point of 6 °C.
Consider `O=C(O)COc1ccccc1` [phenoxyacetic acid], for which the melting point came out at 100 °C.
`CCCC(N)=O` [butyramide]: the melting point was 115 °C.
In turn, `CCCCCCCCCCCCS[C@H](C(=O)Nc1cc(C)c(O)c(C)c1C)c1ccccc1` [eflucimibe] yielded a melting point of -144 °C.
As to `N#CCc1ccc(Cl)cc1` [4-chlorobenzyl_cyanide], the melting point came out at 31 °C.
The same measure for `Clc1cc(Cl)cc(-c2nnn[nH]2)c1` [5-(3,5-dichlorophenyl)-1h-tetrazole]: 207 °C.
The same measure for `CCc1cc(C(N)=S)ccn1` [Ethionamide]: 163 °C; for `CC(=O)CC(C)C` [4-Methylpentan-2-one]: -80 °C; for `C[C@H]1CCCC[C@@H]1C` (relative stereo) [trans-1,2-dimethylcyclohexane]: -88 °C.
`COc1ccc2c(c1)no[n+]2[O-]` [5-Methoxybenzofurazan, 1-oxide] gave a melting point of 118 °C.
`Nc1c(Cl)cc(C(F)(F)F)cc1[N+](=O)[O-]` [2-chloro-6-nitro-4-(trifluoromethyl)aniline] displayed a melting point of 65 °C.
In the case of `O=c1cc(C(F)(F)F)c2ccc(O)cc2o1` [7-hydroxy-4-(trifluoromethyl)coumarin] it was 179 °C.
The same measure for `CC(C)c1ccccc1B(O)O` [2-isopropylbenzeneboronic acid]: 86 °C; for `N#Cc1cccnc1` [3-cyanopyridine]: 50 °C; for `OC[C@@H](O)[C@H](O)[C@@H](O)CO` [D-Xylitol]: 104 °C.
The same measure for `Nc1ccccc1N` [o-phenylenediamine]: 102 °C; for `CC(Cc1oc2c(c3c(c4ccccc42)OC2CC(=O)OC32)c(=O)c1[Si](C)(C)C)O[Si](C)(C)C(C)(C)C` (stereo not given): 190 °C.
In the case of `c1ccc2[nH]cnc2c1` [benzimidazole], the melting point was 170 °C and 172 °C.
In the case of `O=C(O)Cc1ccc(Cl)cc1` [4-chlorophenylacetic acid] it was 105 °C; in that of `CC(C)(C)[SiH](Cl)C(C)(C)C` [Di-tert-butyl(chloro)silane], 39 °C; in that of `CCC` [propane], -188 °C.
For the molecule `O=C1Nc2ccc(Cl)cc2C(c2ccccc2Cl)=NC1O` (stereo not given) [lorazepam], the melting point was found to be 167 °C.
Molecule `Nc1ccc(C(O)(C(F)(F)F)C(F)(F)F)cc1` [2-(4-aminophenyl)-1,1,1,3,3,3-hexafluoro-2-propanol] showed a melting point of 150 °C.
